In brackets after ≈: the same amount, converted by molar mass.

In data set [1] the test system is PC-3. Nature of the data set: Antiproliferative activity against human PC3 cells after 48 hrs. To be noted: PC-3, 48 h. Format: functional, cell-based.
Data set [2] in a line: Antiproliferative activity against human VCaP cells. Format: functional, cell-based.
The nature of data set [3]: Induction of apoptosis in malignant lymphocyte after 48 hrs. The data set is classed as functional.
Data set [4] in a line: Antiproliferative activity against human SCC cells assessed as non-viable cell level. The data set is classed as functional.
The test system of data set [5] is MDR. The experiment in a line: Inhibition of MDR in human KB-C4 cells assessed as increase of vinblastine accumulation after 1 hr relative to control. Format: cell-based.
The nature of data set [6]: Cell cycle arrest in human SCC cells assessed as accumulation at G1/G0 phase after 24 hrs relative to control. Format: functional, cell-based.
Data set [7] is described as follows: Inhibition of vinblastine binding to human KB-C4 cells. The data set is classed as functional, cell-based.
Data set [8] relates to MDR. The experiment in a line: Inhibition of MDR in human KB-C4 cells assessed as increase of vinblastine accumulation preincubated for 30 mins before vinblastine addition measured after drug washout relative to control. The data set is classed as cell-based.
A short description of data set [9]: Potentiation of colchicine-induced cytotoxicity in human KB-C4 cells at 1 ug/mL relative to control. Format: functional.
A short description of data set [10]: Toxicity in chronic oral dosed mouse after 2 years. Format: organism-based. As to conditions: in vivo.
Data set [11] in a line: Toxicity in […] oral dosed dog after 1 year. The data set is classed as organism-based, Canis lupus familiaris. As to conditions: in vivo.
Data set [12] deals with SNU-C1. Nature of the data set: Antiproliferative activity against human SNU-C1 cells assessed as growth inhibition at 0.5 uM. Format: functional. As to conditions: read-out: GI.
A short description of data set [13]: Toxicity in subchronic oral dosed dog after 3 months. The data set is classed as organism-based, Canis lupus familiaris. To be noted: in vivo.
Data set [14] in a line: Antiproliferative activity against human NCI-H929 cells assessed as growth inhibition at 0.5 uM. To be noted: read-out: GI. The data set is classed as functional.
Data set [15] is described as follows: Toxicity in subchronic oral dosed rat after 3 months. Format: organism-based. To be noted: in vivo.
Data set [16] can be described thus: Toxicity in chronic oral dosed rat after 2 years. The data set is classed as organism-based. To be noted: in vivo.

Usually EC50 stands for the concentration needed to bring the measured effect to its halfway point. On to `CC[C@@H](C(=O)[C@@H](C)[C@@H](O)[C@H](C)[C@@H]1O[C@@H]([C@@H](CC)C(=O)O)CC[C@@H]1C)[C@H]1O[C@]2(C=C[C@@H](O)[C@]3(CC[C@@](C)([C@H]4CC[C@](O)(CC)[C@H](C)O4)O3)O2)[C@H](C)C[C@@H]1C` [SALINOMYCIN], for which the EC50 in data set [1] was above 1000 nM; in data set [2], 380 nM.
One may read the IC50 as the point on the concentration scale where inhibition reaches its midpoint. In data set [3], `C[C@H](CCC(=O)O)C[C@H](C)C[C@H](C)C(=O)/C=C(\O)[C@H](C)C[C@H](C)C/C=C/[C@@H](C)[C@@H](O)[C@@H](C)[C@@H](O)C[C@@H]1CC[C@@](C)([C@H]2CC[C@@](C)([C@@H](C)O)O2)O1` [IONOMYCIN] returned a concentration for half-maximal inhibition (IC50) of 230 nM.
As for `CCC[C@H](O)[C@@]1(CC)C[C@@H](C)[C@](O)([C@]2(C)C[C@H](C)[C@@H]([C@@H](CC)C(=O)[C@@H](C)[C@@H](O)[C@H](C)[C@H]3O[C@@](O)([C@H](CC)C(=O)O)[C@@H](C)[C@H](O)[C@H]3CC)O2)O1` [INOSTAMYCIN], the Activity in [4] is recorded as below 1%. For the same compound, the fold change (FC) was determined as 4 in data set [5], 1.2 in data set [6] and 3 in data set [8]. Besides, the half-inhibitory concentration (IC50) in data set [7] was found to be 0.94 µg/mL (≈ 1.34 µM).
For `CCC(=O)O[C@H]([C@H](C)[C@H]1O[C@@]2(CC[C@@](C)([C@H]3CC[C@@](C)([C@@H]4O[C@@H]([C@H]5O[C@@](O)(CO)[C@H](C)C[C@@H]5C)C[C@@H]4C)O3)O2)C[C@H](O)[C@H]1C)[C@H](C)C(=O)O` [LAIDLOMYCIN], in data set [9], the “fold change (FC)” value is given as 700.
As a reminder, the NOAEL is the highest dose or exposure tested at which no adverse effect was seen. For `CC[C@@]1([C@@H]2O[C@@H]([C@H]3O[C@@](O)(CO)[C@H](C)C[C@@H]3C)C[C@@H]2C)CC[C@H]([C@]2(C)CC[C@]3(C[C@H](O)[C@@H](C)[C@@H]([C@@H](C)[C@@H](OC)[C@H](C)C(=O)O)O3)O2)O1` [MONENSIN], the NOAEL at 2 years in [10] worked out at 1.3 mg/kg/day; in data set [16] it was 1.4 mg/kg/day. Besides, the NOAEL at 1 year in data set [11] is 1.25 mg/kg/day. Also, the inhibition of growth at 0.5 µM in data set [12] and in [14] was 50% each time. Besides, the NOAEL at 3 months in data set [13] is 5 mg/kg/day; in [15], 2 mg/kg.

Values taken from ChEMBL document CHEMBL2203214, “Polyether ionophores-promising bioactive molecules for cancer therapy” (Bioorg Med Chem Lett, 2012).
